Results on 3 compounds are retold here after US20090099238A1, “USE OF A PPAR-ALPHA AGONIST TO TREAT PATIENTS SUFFERING FROM WEIGHT GAIN ASSOCIATED WITH A PPAR-GAMMA AGONIST TREATMENT” (priority 2003, published 2009).

Experiment [1] in a line: Body weight (gain) in obese Zucker rats under fenofibrate, rosiglitazone or co-administration (Example 1). Type of experiment: in vivo. The procedure: (§1) Male homozygous Zucker rats of 9 to 11 weeks of age and their lean controls were received from Iffa-Credo (France). They were put into individual cages in a temperature-, humidity- and light-controlled room (21-23° C., 12-12 h light-dark cycle). […] After acclimatization, they were randomized into groups of 10, based on body weight.
(§2) The experimental groups were: Group 1=lean rats, untreated; Group 2=obese rats, treated with the vehicle p.o., twice daily (at 8 a.m. and 8 p.m.); Group 3=obese rats, treated with Fenofibrate, 100 mg/kg, p.o., twice daily (at 8 a.m. and 8 p.m.); Group 4=obese rats, treated with Rosiglitazone. 0.3 mg/kg, p.o., twice daily (at 8 a.m. and 8 p.m.); Group 5=obese rats, treated with Rosiglitazone, 3.0 mg/kg., p.o., twice daily (at 8 a.m. and 8 p.m.); Group 6=obese rats, treated with Fenofibrate, 100 mg/kg and Rosiglitazone, 0.3 mg/kg, p.o., twice daily (at 8 a.m. and 8 p.m.); Group 7=obese rats, treated with Fenofibrate, 100 mg/kg and Rosiglitazone, 3.0 mg/kg, p.o., twice daily (at 8 a.m. and 8 p.m.).
(§3) The following parameters were monitored: glycemia (mg/dl) and body weight gain (g).

Experiment [2] is described as follows: Glycemia in obese Zucker rats under fenofibrate, rosiglitazone or co-administration (Example 1). Type of experiment: in vivo. On the procedure:
as §1, §2, §3

For experiment [3] the following is noted: fatty Zucker rats; cited from earlier work.
[4] abbreviates: Group 3: Fenofibrate 100 mg/kg p.o. twice daily, after 41 days of treatment.
[5] abbreviates: Group 3: Fenofibrate 100 mg/kg p.o. twice daily, after 69 days of treatment.
[6] abbreviates: Group 4: Rosiglitazone 0.3 mg/kg p.o. twice daily, after 41 days of treatment.
Setting [7] is: Group 4: Rosiglitazone 0.3 mg/kg p.o. twice daily, after 69 days of treatment.
[8] abbreviates: Group 5: Rosiglitazone 3.0 mg/kg p.o. twice daily, after 41 days of treatment.
[9] abbreviates: Group 5: Rosiglitazone 3.0 mg/kg p.o. twice daily, after 69 days of treatment.

Consider `CC(C)OC(=O)C(C)(C)Oc1ccc(C(=O)c2ccc(Cl)cc2)cc1` [Fenofibrate, fenofibrate], for which the “Body Weight” value in experiment [1] (setting [4]) was 357.0 ± 7.9 g; in experiment [1] (setting [5]), 380.6 ± 13.7 g. Further, the Glycemia in experiment [2] (setting [4]) was 222.2 ± 53.1 mg/dL; in experiment [2] (setting [5]), 372.5 ± 78.5 mg/dL.

As to `COc1ccc(CC2SC(=O)NC2=O)cc1C(=O)NCc1ccc(C(F)(F)F)cc1` (stereo not drawn) [KRP 297], in experiment [3], the “body weight gain (result in words)” value is reported as “no change in body weight gain”; the “serum insulin (result in words)” value is “affected serum triglycerides and insulin”; the “serum triglycerides (result in words)” value is “affected serum triglycerides and insulin”.

`CN(CCOc1ccc(CC2SC(=O)NC2=O)cc1)c1ccccn1` (stereo not drawn) [Rosiglitazone, rosiglitazone]: the “Body Weight” value in experiment [1] (setting [6]) is reported as 538.5 ± 15.8 g; in experiment [1] (setting [7]) it was 615.2 ± 25.9 g; in experiment [1] (setting [8]), 601.4 ± 9.3 g; in experiment [1] (setting [9]) it was 721.0 ± 12.3 g. Besides, the Glycemia was 274.6 ± 56.4 mg/dL in experiment [2] (setting [6]), 446.0 ± 52.4 mg/dL in experiment [2] (setting [7]), 119.6 ± 5.9 mg/dL in experiment [2] (setting [8]) and 151.4 ± 6.5 mg/dL in experiment [2] (setting [9]).
